In patent US20040038855A1 (priority 1999, published 2004) one finds Ki data, which are given here for five compounds.

What is called Ki is a dissociation constant, usually derived from enzyme kinetics or from competition with a known ligand.

Counter-ions that a name gives are not always drawn. Like-named read-outs stand apart in the source and are kept apart here.

The target in experiment [1] is T1, human α1D adrenergic receptor (Homo sapiens, UniProt P25100).
T1 construct: expressed in transfected cells
T1 sequence (P25100 1-572): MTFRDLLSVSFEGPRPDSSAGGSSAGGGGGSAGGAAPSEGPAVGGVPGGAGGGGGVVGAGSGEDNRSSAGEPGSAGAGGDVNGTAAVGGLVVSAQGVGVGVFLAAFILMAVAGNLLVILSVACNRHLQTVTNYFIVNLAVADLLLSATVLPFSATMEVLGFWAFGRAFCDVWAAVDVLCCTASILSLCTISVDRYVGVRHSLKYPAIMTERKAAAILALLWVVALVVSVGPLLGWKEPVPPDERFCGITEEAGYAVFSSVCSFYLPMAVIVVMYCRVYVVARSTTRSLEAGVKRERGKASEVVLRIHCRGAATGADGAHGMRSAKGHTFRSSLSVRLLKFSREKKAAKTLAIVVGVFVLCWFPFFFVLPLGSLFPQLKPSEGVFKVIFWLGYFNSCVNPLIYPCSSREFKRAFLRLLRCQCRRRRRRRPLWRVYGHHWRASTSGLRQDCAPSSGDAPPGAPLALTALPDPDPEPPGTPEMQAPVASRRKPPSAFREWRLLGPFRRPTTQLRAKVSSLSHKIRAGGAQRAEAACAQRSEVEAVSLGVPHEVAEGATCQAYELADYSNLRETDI
The experiment in a line: Binding affinity at the human α1D adrenergic receptor. As to conditions: Table 3d; read-out: hα1D Ki. The text has this:
(§1) Other receptors: Cell membranes expressing human dopamine D1, D2, D4 and rat D3 receptors were purchased through BioSignal, Inc. (Montreal, Canada). Binding assays using the histamine H1 receptor; dopamine receptors; and α1A, α1B, and α2 adrenergic receptors may be carried out according to the procedures described in U.S. Pat. No. 5,780,485, the disclosure of which is hereby incorporated by reference in its entirety into this application. Binding assays using the dopamine D5 receptor may be carried out according to the procedures described in U.S. Pat. No. 5,882,855, the disclosure of which is hereby incorporated by reference in its entirety into this application. Binding assays for the human α1D adrenergic receptor may be carried out according to the procedures described in U.S. Pat. No. 6,156,518, the disclosure of which is hereby incorporated by reference in its entirety into this application.

Experiment [2] deals with T2, human Alpha-1a Adrenergic receptor (Homo sapiens, UniProt P35348).
T2 construct: expressed in transfected cells
T2 sequence (P35348 1-466): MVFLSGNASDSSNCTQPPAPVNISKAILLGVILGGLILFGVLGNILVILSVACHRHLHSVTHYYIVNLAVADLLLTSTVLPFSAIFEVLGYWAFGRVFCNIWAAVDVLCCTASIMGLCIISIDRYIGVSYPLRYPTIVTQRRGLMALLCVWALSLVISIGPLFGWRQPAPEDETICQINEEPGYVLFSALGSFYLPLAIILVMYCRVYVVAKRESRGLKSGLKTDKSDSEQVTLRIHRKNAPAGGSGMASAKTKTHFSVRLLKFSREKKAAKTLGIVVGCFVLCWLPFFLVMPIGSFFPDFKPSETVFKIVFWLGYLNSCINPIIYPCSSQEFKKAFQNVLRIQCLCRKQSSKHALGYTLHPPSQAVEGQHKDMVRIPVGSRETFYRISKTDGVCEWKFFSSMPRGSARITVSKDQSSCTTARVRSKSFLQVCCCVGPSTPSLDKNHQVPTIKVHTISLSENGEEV
The experiment in a line: Binding affinity at the human alpha-1A adrenergic receptor. In outline:
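Receptor binding read-out throughout; membranes expressing human D1 or D2 receptor were used for those two targets.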

Another experiment concerns the target T3, human α2B adrenoceptor (Homo sapiens, UniProt P18089).
T3 construct: expressed in transfected cells
T3 sequence (P18089 1-450): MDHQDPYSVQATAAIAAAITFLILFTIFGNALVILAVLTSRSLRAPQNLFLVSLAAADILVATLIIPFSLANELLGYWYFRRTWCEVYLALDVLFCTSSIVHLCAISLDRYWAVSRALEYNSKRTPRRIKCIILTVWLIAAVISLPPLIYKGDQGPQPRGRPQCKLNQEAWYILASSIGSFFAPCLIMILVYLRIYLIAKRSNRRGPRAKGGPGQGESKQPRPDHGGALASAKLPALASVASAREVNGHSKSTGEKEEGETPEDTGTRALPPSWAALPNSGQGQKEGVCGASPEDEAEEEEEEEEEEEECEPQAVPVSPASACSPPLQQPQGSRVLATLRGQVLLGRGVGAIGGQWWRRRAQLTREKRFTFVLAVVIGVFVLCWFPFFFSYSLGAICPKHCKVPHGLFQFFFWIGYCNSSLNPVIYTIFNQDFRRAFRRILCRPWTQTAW
The experiment in a line: Binding affinity at the human α2B adrenergic receptor.
Excerpt: as §1

A further experiment concerns the target T4, human α2C adrenoceptor (Homo sapiens, UniProt P18825).
T4 construct: expressed in transfected cells
T4 sequence (P18825 1-462): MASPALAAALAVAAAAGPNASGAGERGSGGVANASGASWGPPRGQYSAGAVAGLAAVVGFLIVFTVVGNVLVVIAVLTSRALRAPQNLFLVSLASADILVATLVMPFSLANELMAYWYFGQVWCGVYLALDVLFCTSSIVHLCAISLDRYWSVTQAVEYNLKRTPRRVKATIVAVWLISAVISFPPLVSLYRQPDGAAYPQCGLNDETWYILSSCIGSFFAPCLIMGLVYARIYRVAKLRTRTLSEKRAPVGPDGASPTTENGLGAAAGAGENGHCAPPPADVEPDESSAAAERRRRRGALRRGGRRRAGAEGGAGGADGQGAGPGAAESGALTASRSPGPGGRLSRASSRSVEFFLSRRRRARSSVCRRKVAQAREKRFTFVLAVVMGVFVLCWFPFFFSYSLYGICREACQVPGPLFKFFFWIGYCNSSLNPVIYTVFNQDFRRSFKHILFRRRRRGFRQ
The experiment in a line: Binding affinity at the human α2C adrenergic receptor.
Excerpt: as §1

On to “2-(3,4-DIFLUOROPHENYL)4,5-DIHYDROIMIDAZOLE-1-CARBOXYLIC ACID {3-[4-PHENYL-4-(4-BROMO-5-METHYLTHIOPNEN-2-YL)]-PROPYL}-AMIDE [Example 19]”, for which the Ki in experiment [1] stood at 517 nM; in experiment [2] (Table 3d, read-out: hα1A Ki), 2.5 nM; on human α2B adrenoceptor (Table 3d, read-out: hα2B Ki) it was 349 nM; at human α2C adrenoceptor (Table 3d, read-out: hα2C Ki), 174 nM.

As for `COC(=O)C1=C(C)NC(=O)N(C(=O)NCCCN2CCC3(CC2)OCc2ccccc23)C1c1ccc2nonc2c1` (single isomer, unassigned) [Example 18, HYDROCHLORIDE], the inhibition constant (Ki) in experiment [1] stood at 612 nM; in experiment [2] it was 1.7 nM; on human α2B adrenoceptor, 74 nM; at human α2C adrenoceptor it was 96 nM.

Consider `COCC1=C(C(=O)OC)C(c2ccc(F)c(F)c2)N(C(=O)NCCCN2CCC(c3cccc(NC(C)=O)c3)CC2)C(=O)N1` (single isomer, unassigned; (-)) [Example 1, (−)-1,2,3,6-TETRAHYDRO-1-{N-[4-(3,-ACETAMIDO)-PHENYLPIPERIDIN-1-YL]PROPYL}CARBOXAMIDO-4-METHOXYMETHYL-6-(3,4-DIFLUORO-PHENYL)-2-OXOPYRIMIDINE-5-CARBOXYLIC ACID METHYL ESTER], for which the Ki turned out to be 1310 nM in experiment [1] and 2210 nM in experiment [2] (Table 3d, read-out: hα1A Ki).

Consider `COCC1=C(C(=O)OC)[C@H](c2ccc(F)c(F)c2)N(C(=O)NCCCN2CCC(c3cccc(NC(C)=O)c3)CC2)C(=O)N1` [Example 10, (+)-1,2,3,6-TETRAHYDRO-1-{N-[4-(3,-ACETAMIDO)-PHENYLPIPERIDIN-1-YL]PROPYL}CARBOXAMIDO-4-METHOXYMETHYL-6-(3,4-DIFLUORO-PHENYL)-2-OXOPYRIMIDINE-5-CARBOXYLIC ACID METHYL ESTER], for which the Ki in experiment [1] came to 12300 nM; in experiment [2] (Table 3d, read-out: hα1A Ki), 45.8 nM.

In the case of `COC(=O)C1=C(C)NC(=O)N(C(=O)NCCCN2CCC3(CC2)OCc2ccccc23)C1c1ccc(F)c(F)c1` (stereo not drawn) [Example 20, 4-(3,4-DIFLUORPHENYL)-6-METHYL-2-OXO-3-{[3-(4-SPIRO[ISOBENZOFURAN-1(3H),4′-PIPERIDINE]PROPYL}-1,2,3,4-TETRAHYDROPYRIMIDINE-5-CARBOXYLIC ACID METHYL ESTER], the Ki in experiment [1] was 207 nM; on human α2B adrenoceptor, 97 nM; at human α2C adrenoceptor (Table 3d, read-out: hα2C Ki) it was 138 nM.
